Experimental data published in US20110230476A1, “PI3 KINASE INHIBITORS AND USES THEREOF” (AVILA THERAPEUTICS, INC., priority 2009, published 2011).
“Also recorded” adds a separate entry of the source.

How the values were obtained:
PI3Kα (p110α/p85α) = target: T1, PI3Kα (p110α/p85α) (Homo sapiens, UniProt P42336); assay: HTRF assay, potency against active PI3Kα; type: biochemical; settings: for IC50: HTRF, [ATP]=50 μM, [di-C8-PIP2]=10 μM, 30 min pre-incubation, read-out: PI3Kα Inhibition
T1 construct: purchased BPS Bioscience (San Diego, Calif.) or Millipore (Billerica, Mass.)
T1 sequence (P42336 whole entry): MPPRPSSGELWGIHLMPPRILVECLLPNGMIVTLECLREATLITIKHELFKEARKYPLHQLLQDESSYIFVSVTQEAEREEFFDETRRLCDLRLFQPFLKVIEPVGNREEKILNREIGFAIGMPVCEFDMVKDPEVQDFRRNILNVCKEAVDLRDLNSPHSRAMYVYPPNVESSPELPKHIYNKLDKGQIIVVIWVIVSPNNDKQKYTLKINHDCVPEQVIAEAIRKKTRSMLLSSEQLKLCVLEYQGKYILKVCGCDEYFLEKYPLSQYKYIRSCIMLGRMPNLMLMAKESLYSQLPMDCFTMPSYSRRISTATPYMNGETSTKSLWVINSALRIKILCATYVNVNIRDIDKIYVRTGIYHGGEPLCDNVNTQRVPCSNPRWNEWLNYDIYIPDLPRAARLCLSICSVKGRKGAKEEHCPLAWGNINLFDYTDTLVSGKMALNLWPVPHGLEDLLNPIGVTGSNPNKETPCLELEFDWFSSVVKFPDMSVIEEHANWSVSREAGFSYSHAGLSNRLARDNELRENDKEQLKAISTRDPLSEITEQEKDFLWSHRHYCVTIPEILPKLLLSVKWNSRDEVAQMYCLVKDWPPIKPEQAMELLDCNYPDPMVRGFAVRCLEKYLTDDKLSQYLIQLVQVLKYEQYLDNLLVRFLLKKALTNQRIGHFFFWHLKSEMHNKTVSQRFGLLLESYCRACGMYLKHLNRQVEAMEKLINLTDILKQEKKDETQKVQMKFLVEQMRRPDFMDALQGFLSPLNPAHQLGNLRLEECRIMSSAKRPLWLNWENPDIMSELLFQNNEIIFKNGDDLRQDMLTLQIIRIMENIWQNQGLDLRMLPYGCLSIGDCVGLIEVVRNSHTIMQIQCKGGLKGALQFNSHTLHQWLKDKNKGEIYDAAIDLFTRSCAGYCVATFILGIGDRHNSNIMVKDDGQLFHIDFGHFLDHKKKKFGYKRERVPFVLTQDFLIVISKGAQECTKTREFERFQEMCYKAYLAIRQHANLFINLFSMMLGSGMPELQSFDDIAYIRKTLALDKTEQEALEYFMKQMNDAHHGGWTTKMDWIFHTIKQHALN
T1 sequence (P27986 whole entry partner): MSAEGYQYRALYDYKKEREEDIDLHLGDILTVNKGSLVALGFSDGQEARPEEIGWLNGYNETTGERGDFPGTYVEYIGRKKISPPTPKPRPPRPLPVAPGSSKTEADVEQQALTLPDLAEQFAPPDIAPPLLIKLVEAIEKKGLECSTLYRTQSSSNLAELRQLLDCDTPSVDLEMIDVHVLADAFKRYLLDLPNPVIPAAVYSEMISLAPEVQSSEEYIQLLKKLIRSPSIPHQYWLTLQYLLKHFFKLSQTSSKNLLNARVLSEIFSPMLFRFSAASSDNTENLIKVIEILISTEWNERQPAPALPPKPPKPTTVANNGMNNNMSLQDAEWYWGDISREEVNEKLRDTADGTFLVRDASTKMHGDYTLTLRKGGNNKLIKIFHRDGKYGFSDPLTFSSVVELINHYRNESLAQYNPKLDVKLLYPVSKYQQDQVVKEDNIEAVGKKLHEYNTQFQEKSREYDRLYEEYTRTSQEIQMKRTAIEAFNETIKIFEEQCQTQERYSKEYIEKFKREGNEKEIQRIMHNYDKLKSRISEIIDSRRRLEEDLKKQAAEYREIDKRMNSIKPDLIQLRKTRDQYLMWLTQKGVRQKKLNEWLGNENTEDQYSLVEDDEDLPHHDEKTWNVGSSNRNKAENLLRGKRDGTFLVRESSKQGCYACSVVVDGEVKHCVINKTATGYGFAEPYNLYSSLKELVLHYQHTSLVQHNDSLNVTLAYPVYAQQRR
How it was run: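 Active p110/p85α lipid kinase reactions were started with ATP and run 30-60 minutes at 25 °C, then stopped and developed with HTRF detection mix. HTRF ratio converted to % inhibition against ±enzyme controls; IC50 from log[inhibitor] vs response, variable slope.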

PI3Kα [1] = target: T2, PI3Kα (Homo sapiens, UniProt P42336); assay: Mass spectrometry of intact PI3Kα (Johns Hopkins), 3 hr incubation; type: binding; parameters: Johns Hopkins; settings: 10× fold excess of compound, MALDI
Description: (§1) Mass Spectrometry for PI3K
Intact PI3Kα (Johns Hopkins) was incubated for 3 hr at a 10× fold excess of II-a-45 or II-a-49 to protein. Aliquots (3 μL) of the samples were diluted with 10 μL of 0.1% TFA prior to micro C4 ZipTipping directly onto the MALDI target using Sinapinic acid as the desorption matrix (10 mg/ml in 0.1% TFA:Acetonitrile 50:50).
Target sequence in this assay (P42336 whole entry): as the sequence (P42336 whole entry) above
Target sequence in this assay (P27986 322-600 partner limits assumed): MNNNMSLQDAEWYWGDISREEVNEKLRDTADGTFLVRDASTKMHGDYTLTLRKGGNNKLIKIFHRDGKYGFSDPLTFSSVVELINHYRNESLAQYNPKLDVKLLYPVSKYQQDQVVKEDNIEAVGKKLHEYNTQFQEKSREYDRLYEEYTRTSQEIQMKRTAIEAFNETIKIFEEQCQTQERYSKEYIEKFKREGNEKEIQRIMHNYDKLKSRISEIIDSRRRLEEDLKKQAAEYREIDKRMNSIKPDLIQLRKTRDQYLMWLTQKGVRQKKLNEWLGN

PI3Kγ (p120γ) = target: T3, PI3Kγ (p120γ) (Homo sapiens, UniProt P48736); assay: HTRF assay, potency against active PI3Kγ; type: biochemical; settings: [ATP]=50 μM, [di-C8-PIP2]=10 μM, 30 min pre-incubation, read-out: PI3Kγ Inhibition
T3 construct: purchased BPS Bioscience (San Diego, Calif.) or Millipore (Billerica, Mass.)
T3 sequence (P48736 whole entry): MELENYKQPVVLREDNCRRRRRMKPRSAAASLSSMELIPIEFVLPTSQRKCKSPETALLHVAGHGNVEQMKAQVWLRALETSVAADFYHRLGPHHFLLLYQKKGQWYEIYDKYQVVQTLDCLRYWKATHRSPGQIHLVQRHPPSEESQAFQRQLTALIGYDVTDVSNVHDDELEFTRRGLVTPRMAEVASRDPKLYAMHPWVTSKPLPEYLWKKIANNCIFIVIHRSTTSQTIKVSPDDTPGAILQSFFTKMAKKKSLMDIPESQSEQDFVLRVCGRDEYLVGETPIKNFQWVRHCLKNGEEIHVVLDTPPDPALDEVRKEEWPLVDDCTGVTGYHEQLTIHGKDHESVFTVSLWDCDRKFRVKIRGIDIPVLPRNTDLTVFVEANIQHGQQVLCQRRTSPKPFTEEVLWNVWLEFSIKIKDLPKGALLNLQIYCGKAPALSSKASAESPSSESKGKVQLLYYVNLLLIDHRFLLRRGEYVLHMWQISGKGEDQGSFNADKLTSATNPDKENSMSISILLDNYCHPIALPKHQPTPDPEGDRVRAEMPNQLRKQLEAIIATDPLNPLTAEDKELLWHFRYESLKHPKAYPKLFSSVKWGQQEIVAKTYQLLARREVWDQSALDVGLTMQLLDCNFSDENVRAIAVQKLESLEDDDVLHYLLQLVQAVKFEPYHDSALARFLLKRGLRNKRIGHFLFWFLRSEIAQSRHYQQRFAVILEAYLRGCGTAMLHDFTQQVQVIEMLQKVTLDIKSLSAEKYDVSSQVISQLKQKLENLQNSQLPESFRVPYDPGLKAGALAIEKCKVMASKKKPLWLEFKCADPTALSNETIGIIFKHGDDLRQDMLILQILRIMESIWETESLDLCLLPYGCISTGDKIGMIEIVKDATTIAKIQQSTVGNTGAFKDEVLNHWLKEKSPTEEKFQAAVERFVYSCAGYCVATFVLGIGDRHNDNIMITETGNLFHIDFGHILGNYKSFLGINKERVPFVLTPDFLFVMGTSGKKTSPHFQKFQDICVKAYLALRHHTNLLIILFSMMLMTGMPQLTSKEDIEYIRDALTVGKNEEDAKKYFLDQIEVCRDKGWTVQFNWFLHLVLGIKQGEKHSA
How it was run: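 End-point competition HTRF: enzyme (p110β/p85α 0.75 nM; p120γ 2-2.5 nM) with 10 μM di-C8-PIP2 pre-incubated 30 min at 25° C with compound, then 50 μM ATP added for 30-60 min at 25° C. Stopped, detected after 1 and 18 h; IC50 from variable-slope fit.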

PI3K = PI3K HCT116 cellular assay (Western blot); type: cell-based; settings: Homo sapiens, HCT-116, HCT116 colon cancer cells, 1 hour incubation, read-out: PI3K Inhibition
Description: PI3K HCT116 Cellular Assay
Selected compounds were assayed in HCT116 colon cancer cells. […] Cells were then washed with PBS, lysed and the protein lysates were then recovered and analyzed by Western blot.

Phospho-Akt(Ser473) = assay: Dose response in SKOV3 cells as determined by in-cell Western; type: cell-based; settings: Homo sapiens, SK-OV-3; SKOV3 cells, 1 hr; read-out: pAKT Inhibition in cell Western
How it was run: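 SKOV3 cells treated with compound for 1 hr, then formaldehyde-fixed, permeabilised and stained overnight for phospho-Akt(Ser473) with anti-tubulin as a reference. Infrared secondary antibodies read at 680 and 800 nm channels by in-cell Western imaging.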

PI3Kβ (p110β/p85α) = target: T4, PI3Kβ (p110β/p85α) (Homo sapiens, UniProt P42338); assay: HTRF assay, potency against active PI3Kβ; type: biochemical; settings: [ATP]=50 μM, [di-C8-PIP2]=10 μM, 30 min pre-incubation, read-out: PI3Kβ Inhibition
T4 construct: purchased BPS Bioscience (San Diego, Calif.) or Millipore (Billerica, Mass.)
T4 sequence (P42338 whole entry): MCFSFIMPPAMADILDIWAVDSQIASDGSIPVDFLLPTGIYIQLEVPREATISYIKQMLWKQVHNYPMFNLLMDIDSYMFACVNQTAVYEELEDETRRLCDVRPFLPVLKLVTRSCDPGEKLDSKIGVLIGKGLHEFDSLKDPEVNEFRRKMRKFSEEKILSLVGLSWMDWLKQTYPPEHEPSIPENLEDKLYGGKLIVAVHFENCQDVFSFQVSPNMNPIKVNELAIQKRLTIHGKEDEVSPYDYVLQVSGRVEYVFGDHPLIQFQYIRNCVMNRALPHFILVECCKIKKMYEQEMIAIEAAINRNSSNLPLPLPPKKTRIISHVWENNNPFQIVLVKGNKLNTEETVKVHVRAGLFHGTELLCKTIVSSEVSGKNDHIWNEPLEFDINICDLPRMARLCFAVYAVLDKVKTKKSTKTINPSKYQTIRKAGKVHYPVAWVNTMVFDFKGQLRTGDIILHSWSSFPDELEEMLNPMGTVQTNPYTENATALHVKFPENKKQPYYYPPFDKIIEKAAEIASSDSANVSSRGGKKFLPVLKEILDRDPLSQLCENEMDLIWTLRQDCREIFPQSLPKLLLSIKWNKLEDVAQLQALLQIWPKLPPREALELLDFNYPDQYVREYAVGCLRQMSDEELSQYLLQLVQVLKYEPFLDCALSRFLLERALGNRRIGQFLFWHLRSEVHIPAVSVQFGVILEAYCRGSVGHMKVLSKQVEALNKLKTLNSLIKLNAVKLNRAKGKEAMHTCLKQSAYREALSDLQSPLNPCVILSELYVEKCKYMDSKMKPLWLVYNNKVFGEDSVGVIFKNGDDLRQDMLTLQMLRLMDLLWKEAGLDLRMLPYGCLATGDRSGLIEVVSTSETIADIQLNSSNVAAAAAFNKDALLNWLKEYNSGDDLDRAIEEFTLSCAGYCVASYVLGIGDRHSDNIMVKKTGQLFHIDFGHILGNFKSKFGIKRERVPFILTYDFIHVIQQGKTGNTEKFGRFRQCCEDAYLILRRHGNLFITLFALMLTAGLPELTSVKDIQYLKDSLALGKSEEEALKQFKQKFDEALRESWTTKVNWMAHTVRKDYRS
T4 sequence (P27986 whole entry partner): as the sequence (P27986 whole entry partner) above
Description: Homogeneous Time Resolved Fluorescence (HTRF) Assay Protocol for Potency Assessment Against the Active Forms of PI3Kα, PI3Kβ, and PI3Kγ
The mechanics of the assay platform are best described by the vendor (Millipore, Billerica, Mass.) on their website at the following URL: www.millipore.com/coa/tech1/74jt4z.
Briefly, Stop solution (Stop A, #33-007 and Stop B, #33-009; 3:1 ratio) and Detection Mix (from DMC, #33-015 with DMA, #33-011 and DMB, #33-013; 18:1:1 ratio) were prepared as recommended by the manufacturer about 2 hrs prior to use. […] Lipid kinase reactions were started with the addition of 5 μL of ATP solution, mixed for 15 sec on a rotary plate shaker and incubated for 30-60 minutes at 25° C. Next, reactions were stopped with a 5 μL addition of Stop solution immediately followed by a 5 μL volume of Detection Mix. […] At the conclusion of each assay, the HTRF ratio from fluorescence emission values for each well was calculated and % Inhibition determined from averaged controls wells (+/−PI3K enzyme). % Inhibition values for each compound were then plotted against inhibitor concentration to estimate IC50 from log [Inhibitor] vs Response, Variable Slope model in GraphPad Prism from GraphPad Software (San Diego, Calif.).

SKOV3 cells = assay: GI50 determinations in SKOV3 cells; type: cell-based; settings: Homo sapiens, SK-OV-3; SKOV3 cells, 96 hours, Cell Titer Glo
Description: GI50 Determinations in SKOV3 Cells
A standard curve ranging from 10,000 to 50,000 cells was set up in a separate plate and allowed to adhere to the plate for 4-6 hours, at which time the plate was developed using Cell Titer-Glow (Promega, Madison, Wis.) according to manufacturer's instructions.
The next morning, 3-fold compound dilutions ranging from 10,000 nM to 40 nM were prepared in Proliferation Media containing 1% DMSO. 20 ul of each dilution was added to the SKOV3 cells plated the previous day resulting in a dose response curve from 1000 nM to 4 nM. The cells were incubated for 96 hours and then developed with Cell Titer Glo.
The cell numbers at the end of the assay were determined using the standard curve generated at the start of the assay. Growth inhibition was calculated using the following formulas and GI50s were determined by plotting the % growth inhibition vs. Log compound concentration in GraphPad.
%growth=100×(T−T0)/(C−T0)
T=Cell Number at end of assay T0=Cell Number at start of assay (5000) C=Number of cells in DMSO controls at end of assay
%growth inhibition=100−%growth

PI3Kα [2] = target: T2, PI3Kα; assay: Mass spectrometry of intact PI3Kα (Millipore, 14-602), 1 hr incubation; type: binding; parameters: purchased Millipore 14-602; settings: 10× fold excess of compound, MALDI
Description: as §1
Target sequence in this assay (P42336 whole entry): as the sequence (P42336 whole entry) above
Target sequence in this assay (P27986 whole entry partner): as the sequence (P27986 whole entry partner) above
Aliquots (5 μl) of the samples were diluted with 15 μl of 0.2% TFA prior to micro C4 ZipTipping directly onto the MALDI target using Sinapinic acid as the desorption matrix (10 mg/ml in 0.1% TFA:Acetonitrile 50:50).

| IC50 (PI3Kα (p110α/p85α)) [nM] | covalent modification of PI3Kα (PI3Kα [1]) | IC50 (PI3Kγ (p120γ)) [nM] | EC50 (Phospho-Akt(Ser473)) [nM] | covalent modification of PI3Kα (PI3Kα [2]) | Structure (SMILES) | further results |
| --- | --- | --- | --- | --- | --- | --- |
| < 10 | completely modify | > 1000 |  |  | C/C=C/C(=O)CCC(=O)NCC(=O)N1CCN(Cc2cc3nc(-c4cccc5[nH]ncc45)nc(N4CCOCC4)c3s2)CC1 [II-a-16, (E)-N-(2-(4-((2-(1H-indazol-4-yl)-4-morpholinothieno[3,2-d]pyrimidin-6-yl)methyl)piperazin-1-yl)-2-oxoethyl)-4-oxohept-5-enamide] | times more potent than its reversible counterpart II^R-a-16 (PI3Kα (p110α/p85α); PI3Kα HTRF assay): about 35 times; EC50 (PI3K): 100 to 500 nM |
| 10 to 100 | completely modify | > 1000 |  |  | C=C(C)C(=O)CCC(=O)NCC(=O)N1CCN(Cc2cc3nc(-c4cccc5[nH]ncc45)nc(N4CCOCC4)c3s2)CC1 [II-a-33, N-(2-(4-((2-(1H-indazol-4-yl)-4-morpholinothieno[3,2-d]pyrimidin-6-yl)methyl)piperazin-1-yl)-2-oxoethyl)-5-methyl-4-oxohex-5-enamide] | EC50 (PI3K): 20 to 100 nM |
| < 10 | completely modify | > 1000 | 100 to 1000 |  | C/C=C/C(=O)CCC(=O)NCC(=O)N1CCN(Cc2cc3nc(-c4cccc(O)c4)nc(N4CCOCC4)c3s2)CC1 [II-a-37, (E)-N-(2-(4-((2-(3-hydroxyphenyl)-4-morpholinothieno[3,2-d]pyrimidin-6-yl)methyl)piperazin-1-yl)-2-oxoethyl)-4-oxohept-5-enamide] | EC50 (PI3K): 20 to 100 nM |
| 10 to 100 | completely modify | > 1000 |  |  | CC(C)/C=C/C(=O)CCC(=O)N1CCN(Cc2cc3nc(-c4cccc5[nH]ncc45)nc(N4CCOCC4)c3s2)CC1 [II-a-54, (E)-1-(4-((2-(1H-indazol-4-yl)-4-morpholinothieno[3,2-d]pyrimidin-6-yl)methyl)piperazin-1-yl)-7-methyloct-5-ene-1,4-dione] |  |
| 10 to 100 |  | 100 to 1000 |  |  | CC(C)=CC(=O)CCCC(=O)N1CC=C(c2cc3nc(-c4cnc(N)nc4)nc(C4=CCOCC4)c3s2)CC1 [II-a-169] | IC50 (PI3Kβ (p110β/p85α)): > 1000 nM |
| 100 to 1000 |  | 100 to 1000 | ≤ 10 |  | C=CC(=O)Nc1ccc(C(=O)N2CC=C(c3cc4nc(-c5cnc(N)nc5)cc(N5CCOCC5)c4s3)CC2)cc1 [II-g-2, N-(4-(4-(5-(2-aminopyrimidin-5-yl)-7-morpholinothieno[3,2-b]pyridin-2-yl)-1,2,3,6-tetrahydropyridine-1-carbonyl)phenyl)acrylamide] | GI50 (SKOV3 cells): 100 to 1000 nM |
| 100 to 1000 |  |  | 100 to 1000 |  | C=CC(=O)Nc1ccc(CC(=O)N2CCC(n3ncc4c(N5CCOCC5)nc(-c5ccc(NC(=O)NC)cc5)nc43)CC2)cc1 [VII-9, N-(4-(2-(4-(6-(4-(3-methylureido)phenyl)-4-morpholino-1H-pyrazolo[3,4-d]pyrimidin-1-yl)piperidin-1-yl)-2-oxoethyl)phenyl)acrylamide] | GI50 (SKOV3 cells): 100 to 1000 nM |
| 100 to 1000 |  |  |  | similarly modify | CC(C)=CC(=O)c1ccc(CCNC(=O)c2cc(-c3cnc(N)nc3C)nc(N3CCOCC3)c2)cc1 [XII-15, 2-(2-amino-4-methylpyrimidin-5-yl)-N-(4-(3-methylbut-2-enoyl)phenethyl)-6-morpholinoisonicotinamide] |  |
| > 1000 |  |  |  | similarly modify | CC(C)=CC(=O)CCc1ccc(C#Cc2cc(-c3cnc(N)nc3C)nc(N3CCOCC3)c2)cc1 [XII-18, 1-(4-((2-(2-amino-4-methylpyrimidin-5-yl)-6-morpholinopyridin-4-yl)ethynyl)phenyl)-5-methylhex-4-en-3-one] |  |
| > 1000 |  |  | 100 to 1000 | similarly modify | CC(C)=CC(=O)CCC(=O)N1CC2(CCN(c3cc(-c4cnc(N)nc4)nc(N4CCOCC4)c3)CC2)C1 [XII-42, 1-(7-(2-(2-aminopyrimidin-5-yl)-6-morpholinopyridin-4-yl)-2,7-diazaspiro[3.5]nonan-2-yl)-6-methylhept-5-ene-1,4-dione] |  |
| 10 to 100 |  |  | 10 to 100 | similarly modify | C=CC(=O)Nc1ccc(CC(=O)N2CC=C(c3cc(-c4cnc(N)nc4)nc(N4CCOCC4)c3)CC2)cc1 [XII-51, N-(4-(2-(4-(2-(2-aminopyrimidin-5-yl)-6-morpholinopyridin-4-yl)-5,6-dihydropyridin-1(2H)-yl)-2-oxoethyl)phenyl)acrylamide] |  |
| 100 to 1000 |  |  | 100 to 1000 | similarly modify | C=CC(=O)Nc1ccc(C(=O)N2CCC3(CC2)CN(c2cc(-c4cnc(N)nc4)nc(N4CCOCC4)c2)C3)cc1 [XII-52, N-(4-(2-(2-(2-aminopyrimidin-5-yl)-6-morpholinopyridin-4-yl)-2,7-diazaspiro[3.5]nonane-7-carbonyl)phenyl)acrylamide] |  |
| 100 to 1000 |  |  | 100 to 1000 | covalent modification | C=CC(=O)Nc1ccc(CC(=O)N2CCN(c3cc(-c4cnc(N)nc4)nc(N4CCOCC4)c3)CC2)cc1 [XII-54] | mass shift of PI3Kα (PI3Kα [2]): 542 Da; mass shift of PI3Kα, per cent in brackets (PI3Kα [2]): 103% |

| Structure (SMILES) | IC50 (PI3Kα (p110α/p85α)) [nM] | covalent modification of PI3Kα (PI3Kα [1]) | IC50 (PI3Kγ (p120γ)) [nM] | EC50 (Phospho-Akt(Ser473)) [nM] | covalent modification of PI3Kα (PI3Kα [2]) | further results |
| --- | --- | --- | --- | --- | --- | --- |
| C/C=C/C(=O)CCC(=O)N1CC=C(c2cc3nc(-c4cccc(O)c4)nc(N4CCOCC4)c3s2)CC1 [II-a-45, (E)-1-(4-(2-(3-hydroxyphenyl)-4-morpholinothieno[3,2-d]pyrimidin-6-yl)-5,6-dihydropyridin-1(2H)-yl)hept-5-ene-1,4-dione] | < 10 | covalent modification; also recorded: complete modification | 100 to 1000 | ≤ 10 |  | positive mass shift of PI3Kα (PI3Kα [1]): 563 Da; EC50 (PI3K): 100 to 500 nM |
